From US10266552B2, “Condensed heterocyclic compound having cycloalkylpyridyl group or salt thereof, agricultural and horticultural insecticide comprising the compound, and method for using the insecticide” (Nihon Nohyaku Co., Ltd., priority 2015, dated 2019) come the findings set out here.

Holding throughout (type): in vivo
In assay [1] the test system is Myzus persicae. Nature of the assay: Test of control effect on Myzus persicae (foliar application, potted Chinese cabbage). The settings on record: 144 h, foliar application to potted Chinese cabbage plants, 6 days after the foliar application, read-out: control effect (control rate), activity level. The text has this:
Test of Control Effect on Myzus persicae Chinese cabbage plants were planted in plastic pots (diameter: 8 cm, height: 8 cm), green peach aphids (Myzus persicae) were propagated on the plants, and the number of surviving green peach aphids in each pot was counted. The condensed heterocyclic compounds represented by the general formula (1) of the present invention or salts thereof were separately dispersed in water and diluted to 500 ppm, and the agrochemical dispersions were applied to the foliage of the potted Chinese cabbage plants. After the plants were air-dried, the pots were kept in a greenhouse. At 6 days after the foliar application, the number of surviving green peach aphids on the Chinese cabbage plant in each pot was counted, the control rate was calculated according to the formula shown below, and the control effect was evaluated according to the criterion shown below. Control rate=100−{(T×Ca)/(Ta×C)}×100 Ta: the number of survivors before the foliar application in a treatment plot T: the number of survivors after the foliar application in a treatment plot Ca: the number of survivors before the foliar application in a non-treatment plot C: the number of survivors after the foliar application in a non-treatment plot Criterion A: the control rate is 100%. B: the control rate is 90 to 99%. C: the control rate is 80 to 89%. D: the control rate is 50 to 79%.

In assay [2] the test system is Laodelphax striatella. Briefly: Test of insecticidal effect on Laodelphax striatella (rice seedling dip). The settings on record: Laodelphax striatellus, 192 h, rice seedlings dipped for 30 seconds, 3rd-instar larvae, 8 days after the inoculation, read-out: insecticidal effect (corrected mortality rate), activity level. An excerpt:
Test of Insecticidal Effect on Laodelphax striatella
The condensed heterocyclic compounds represented by the general formula (1) of the present invention or salts thereof were separately dispersed in water and diluted to 500 ppm, and rice plant seedlings (variety: Nihonbare) were dipped in the agrochemical dispersions for 30 seconds. After air-dried, each seedling was put into a separate glass test tube and inoculated with ten 3rd-instar larvae of Laodelphax striatella, and then the glass test tubes were capped with cotton plugs. At 8 days after the inoculation, the numbers of surviving larvae and dead larvae were counted, the corrected mortality rate was calculated according to the formula shown below, and the insecticidal effect was evaluated according to the criterion of Test Example 1. Corrected mortality rate (%)=100×(Survival rate in a non-treatment plot−Survival rate in a treatment plot)/Survival rate in a non-treatment plot

Assay [3] has as its system Plutella xylostella. Briefly: Test of insecticidal effect on Plutella xylostella (dip of Chinese cabbage seedlings with laid eggs). The following applies: 144 h, seedlings with laid eggs dipped for about 30 seconds, 25° C., 6 days after the dip treatment, read-out: insecticidal effect (corrected mortality rate), activity level. The text has this:
Test of Insecticidal Effect on Plutella xylostella
Adults of Plutella xylostella were released onto Chinese cabbage seedlings and allowed to lay eggs thereon. At 2 days after the release of the adults, the Chinese cabbage seedlings with laid eggs were dipped for about 30 seconds in agrochemical dispersions diluted to 500 ppm, each of which contained a different condensed heterocyclic compound represented by the general formula (1) of the present invention as an active ingredient. The seedlings were air-dried and then kept in a thermostatic chamber at 25° C. At 6 days after the dip treatment, the number of hatched larvae per plot was counted, the mortality rate was calculated according to the formula shown below, and the insecticidal effect was evaluated according to the criterion of Test Example 1. This test was conducted in triplicate using 10 adults of Plutella xylostella per plot. Corrected mortality rate (%)=100×(Number of hatched larvae in a non-treatment plot−Number of hatched larvae in a treatment plot)/Number of hatched larvae in a non-treatment plot

Usually mortality stands for the share of the test organisms that died.

For `CCS(=O)(=O)c1cc(C2CC2)cnc1-c1nc2cc(C(F)(F)F)cnc2n1C` [Compound 1-15], the pest or weed control at 500 ppm in assay [1] turned out to be 100%. Also, the mortality at 500 ppm in assay [2] and in assay [3] was 100% throughout.

For the molecule `CCSc1cc(C2CC2)cnc1-c1nc2cc(C(F)(F)F)cnc2o1` [Compound 3-13, 2-(3-ethylthio-5-cyclopropylpyridin-2-yl)-5-trifluoromethyl-oxazolo[5,4-b]pyridine], in assay [1], the pest or weed control at 500 ppm was found to be 100%. Also, the mortality at 500 ppm in assay [2] and in assay [3] was 100% throughout.

`CCS(=O)(=O)c1cc(C2CC2)cnc1-c1nc2cc(C(F)(F)F)cnc2o1` [Compound 3-15, 2-(3-ethylsulfonyl-5-cyclopropylpyridin-2-yl)-5-trifluoromethyl-oxazolo[5,4-b]pyridine]: the pest or weed control at 500 ppm in assay [1] was 100%. In addition, the mortality at 500 ppm in assay [2] and in assay [3] was 100% throughout.

Consider `CCSc1cc(C2CC2)cnc1-c1nc2cc(C(F)(F)F)cnc2s1` [Compound 5-13], for which, in assay [1], the pest or weed control at 500 ppm was 100%. Further, the mortality at 500 ppm in assay [2] and in assay [3] was 100% throughout.

Regarding `CCS(=O)(=O)c1cc(C2CC2)cnc1-c1nc2cc(C(F)(F)F)cnc2s1` [Compound 5-15], in assay [1], the pest or weed control at 500 ppm was 100%. The mortality at 500 ppm in assay [2] and in assay [3] was 100% throughout.

With `CCSc1cc(C2CC2)cnc1-c1nc2cc(C(F)(F)F)ccc2n1C` [Compound 7-13, 2-(3-ethylthio-5-cyclopropylpyridin-2-yl)-1-methyl-5-trifluoromethyl-1H-benzimidazole], in assay [1], the pest or weed control at 500 ppm was determined as 100%. The mortality at 500 ppm in assay [2] and in assay [3] was 100% throughout.

For the molecule `CC[S+]([O-])c1cc(C2CC2)cnc1-c1nc2cc(C(F)(F)F)ccc2n1C` (centres unmarked) [Compound 7-14, 2-(3-ethylsulfinyl-5-cyclopropylpyridin-2-yl)-1-methyl-5-trifluoromethyl-1H-benzimidazole], the pest or weed control at 500 ppm in assay [1] is 100%. In addition, the mortality at 500 ppm in assay [2] and in assay [3] was 100% each time.

Regarding `CCS(=O)(=O)c1cc(C2CC2)cnc1-c1nc2cc(C(F)(F)F)ccc2n1C` [Compound 7-15, 2-(3-ethylsulfonyl-5-cyclopropylpyridin-2-yl)-1-methyl-5-trifluoromethyl-1H-benzimidazole], the pest or weed control at 500 ppm in assay [1] worked out at 100%. In addition, the mortality at 500 ppm in assay [2] and in assay [3] was 100% in each case.

Take `CCSc1cc(C2CC2)cnc1-c1nc2cc(C(F)(F)F)ccc2s1` [Compound 9-10, 2-(3-ethylthio-5-cyclopropylpyridin-2-yl)-5-trifluoromethyl-benzothiazole]: the pest or weed control at 500 ppm in assay [1] worked out at 100%. The mortality at 500 ppm in assay [2] and in assay [3] was 100% in each case.

Regarding `CCS(=O)(=O)c1cc(C2CC2)cnc1-c1nc2cc(C(F)(F)F)ccc2s1` [Compound 9-12, 2-(3-ethylsulfonyl-5-cyclopropylpyridin-2-yl)-5-trifluoromethyl-benzothiazole], in assay [1], the pest or weed control at 500 ppm was determined as 100%. For the same molecule, the mortality at 500 ppm in assay [2] and in assay [3] was 100% each time.

Consider `CCS(=O)(=O)c1cc(C2(C(=O)O)CC2)cnc1-c1nc2cc(C(F)(F)F)cnc2n1C` [Compound 11-1], for which the pest or weed control at 500 ppm in assay [1] stood at 100%. For the same molecule, the mortality at 500 ppm in assay [2] and in assay [3] was 100% throughout.

In the case of `CCS(=O)(=O)c1cc(C2(C(=O)OC)CC2)cnc1-c1nc2cc(C(F)(F)F)cnc2n1C` [Compound 11-2], the pest or weed control at 500 ppm in assay [1] amounted to 100%. The mortality at 500 ppm in assay [2] and in assay [3] was 100% each time.

Consider `CCS(=O)(=O)c1cc(C2(C(N)=O)CC2)cnc1-c1nc2cc(C(F)(F)F)cnc2n1C` [Compound 11-6], for which the pest or weed control at 500 ppm in assay [1] is 100%. The mortality at 500 ppm in assay [2] and in assay [3] was 100% throughout.

For the molecule `CCS(=O)(=O)c1cc(C2(C#N)CC2)cnc1-c1nc2cc(C(F)(F)F)cnc2n1C` [Compound 11-13], the pest or weed control at 500 ppm in assay [1] worked out at 100%. Moreover, the mortality at 500 ppm in assay [2] and in assay [3] was 100% throughout.

Take `CCS(=O)(=O)c1cc(C2CC2C(=O)OC)cnc1-c1nc2cc(C(F)(F)F)cnc2n1C` (centres unmarked) [Compound 11-82]: the pest or weed control at 500 ppm in assay [1] was found to be 100%. Besides, in assay [2], the mortality at 500 ppm was found to be 100%.
